Each block holds one compound with its values, some of them ahead of it.
Assays:
SNX27-retromer [1] = biological target: T1, SNX27-retromer (Mus musculus, UniProt Q9EQH3+Q9QZ88); assay: Immunoblot of retromer complex and cargo protein levels in cultured astrocytes treated with R55; assay type: cell-based; conditions: 10 μM R55 for 48 h
T1 construct: endogenous in cells; host or cells: primary mouse cortical astrocytes
Procedure: (§1) Cell culture, treatment and transfection of primary cortical astrocytes, neurons and HEK293T cells. Mouse cortical astrocytes were prepared from cerebral cortices of 0 to 2-day-old mice pups according to standard methods. Cells seeded on plates or glass coverslips coated with poly-L-lysine (10 μg/ml) and laminin (4 μg/ml) at a density of 5×10^4 cells/cm2 in complete DMEM-F12. After 2 additional days (DIV14-16) astrocytes were treated with vehicle (DMSO), 100 nM bafilomycin Al (Sigma Co.; St. Louis, MO, USA) for 16 h or 10 μM R55 (MedKoo Biosciences, Inc.; Morrisville, NC, USA) for 48 h. Neuronal cultures were prepared from cerebral cortex of 19-day-old Wistar rat embryos, as we have previously described (Lopez-Menendez et al. 2019). Neurons were used after 10 days in vitro (DIV) for immunofluorescence and DIV14 for biochemical assays. Neurons were pretreated or treated for different times as indicated: 50 μM NMDA and 10 μM glycine (Sigma Co.; St. Louis, MO, USA); 200 μM DL-AP5 (Tocris; Bristol, UK); 5 μM R55. Excitotoxicity was induced by treatment with the NMDAR coagonists NMDA and glycine (referred as NMDA treatment). DL-AP5 or R55 were added 1 h or 48 h before NMDA treatment, respectively. […]
Preparation of protein extracts, immunoprecipitation, and immunoblot analysis. […] Equal amounts of total lysates or immunoprecipitates were resolved in SDS-PAGE and analysed by immunoblot. Membranes were incubated with different primary and secondary antibodies and immunoreactive bands were detected by ECL (PerkinElmer, Waltham, MA USA). […]
Quantitative and statistical analysis. Immunoblot signals were quantified by densitometric analysis with ImageJ 1.47d software (NIH) and normalized using β-actin, α-tubulin or GFAP band signal intensities. […] For immunofluorescence quantitative analysis of mice and human brain samples, fluorescence intensity of specific antibodies was measured at the ependymal barrier of lateral ventricles using ImageJ 1.47d software (NIH). […] In those regions, fluorescence signal above a certain threshold, stablished as background, was quantified. […]

SNX27-retromer [2] = assay: Immunofluorescence of SNX27-retromer localization in primary cortical neurons under NMDA excitotoxicity; assay type: cell-based, rat
Procedure: as §1, with “μM […].” for “μM R55.”, “or […]” for “or R55”, “respectively. HEK293T cells were cultured and transfected by standard procedures. HEK293T cells and DIV12-14 primary astrocytes were seeded at 50-60% confluence.” for “respectively.”

SNX27-retromer [3] = assay: Immunoblot of NMDA-induced degradation of SNX27-retromer components and cargos in primary cortical neurons; assay type: cell-based, rat; conditions: 50 μM NMDA and 10 μM glycine; DL-AP5 (200 μM) added 1 h or R55 (5 μM) 48 h before
Procedure: (§2) Cell culture, treatment and transfection of primary cortical astrocytes, neurons and HEK293T cells. Mouse cortical astrocytes were prepared from cerebral cortices of 0 to 2-day-old mice pups according to standard methods. Cells seeded on plates or glass coverslips coated with poly-L-lysine (10 μg/ml) and laminin (4 μg/ml) at a density of 5×10^4 cells/cm2 in complete DMEM-F12. After 2 additional days (DIV14-16) astrocytes were treated with vehicle (DMSO), 100 nM bafilomycin Al (Sigma Co.; St. Louis, MO, USA) for 16 h or 10 μM R55 (MedKoo Biosciences, Inc.; Morrisville, NC, USA) for 48 h. Neuronal cultures were prepared from cerebral cortex of 19-day-old Wistar rat embryos, as we have previously described (Lopez-Menendez et al. 2019). Neurons were used after 10 days in vitro (DIV) for immunofluorescence and DIV14 for biochemical assays. Neurons were pretreated or treated for different times as indicated: 50 μM NMDA and 10 μM glycine (Sigma Co.; St. Louis, MO, USA); 200 μM DL-AP5 (Tocris; Bristol, UK); 5 μM R55. Excitotoxicity was induced by treatment with the NMDAR coagonists NMDA and glycine (referred as NMDA treatment). DL-AP5 or R55 were added 1 h or 48 h before NMDA treatment, respectively. HEK293T cells were cultured and transfected by standard procedures. HEK293T cells and DIV12-14 primary astrocytes were seeded at 50-60% confluence. Two days later cells were transfected in Opti-MEM by using 0.7 μl of Lipofectamine 2000@ reagent (ThermoFisher Scientific) and 0.7 μg of DNA per 24 multi-well plate, according to the manufacturer's specifications. Cells were fixed and processed for immunofluorescence or washed with PBS to prepare protein extracts for immunoprecipitation experiments.
Preparation of protein extracts, immunoprecipitation, and immunoblot analysis. Protein extracts from mice tissue, primary cell cultures or HEK293T cells were prepared in RIPA by standard methods. Briefly, cultured cells were lysed in RIPA buffer (25 mM Tris-HCl, pH 7.6, 1% Triton X-100, 0.5% sodium deoxycholate, 0.1% SDS, 150 mM NaCl) with protease and phosphatase inhibitors for 30 min at 4° C. Lysates were centrifuged for 30 min at 14,000 rpm at 4° C., and resulting supernatant was considered the total lysate soluble fraction. Different mouse tissues were dissected, frozen in dry ice and homogenized in RIPA buffer as above using potter and Polytron homogenizers. For immunoprecipitation, total lysates were incubated with anti-VPS35 or anti-GFP antibody for 4 h at 4° C., before binding immunocomplexes to protein A sepharose beads for 1 h at 4° C. Beads were washed four times with RIPA buffer before adding Laemli sample buffer. Note that sample boiling was avoided to detect properly AQP4 band by immunoblots. Equal amounts of total lysates or immunoprecipitates were resolved in SDS-PAGE and analysed by immunoblot. Membranes were incubated with different primary and secondary antibodies and immunoreactive bands were detected by ECL (PerkinElmer, Waltham, MA USA). Immunoblot images have been cropped for presentation.
Quantitative and statistical analysis. Immunoblot signals were quantified by densitometric analysis with ImageJ 1.47d software (NIH) and normalized using β-actin, α-tubulin or GFAP band signal intensities. Data were expressed relative to values obtained in their respective untreated controls or WT mice or astrocytes. For immunofluorescence quantitative analysis of mice and human brain samples, fluorescence intensity of specific antibodies was measured at the ependymal barrier of lateral ventricles using ImageJ 1.47d software (NIH). Specific ROIs were defined in each brain section at the ependymal barrier boundaries, identified by DAPI staining of ependymal cell nuclei. In those regions, fluorescence signal above a certain threshold, stablished as background, was quantified. In the case of human brain necropsies, nine randomly selected ROIs were used for the analysis. […]

primary cortical neurons [4] = assay: Neuronal viability under NMDAR-induced excitotoxicity (MTT reduction assay, MAP2 staining); assay type: cell-based, rat; conditions: neurons incubated with NMDA for 6 h, R55 5 μM added 48 h before
Procedure: as §1, with “μM […].” for “μM R55.”, “or […]” for “or R55”, “respectively. HEK293T cells were cultured and transfected by standard procedures. HEK293T cells and DIV12-14 primary astrocytes were seeded at 50-60% confluence.” for “respectively.”

[5] = tested on: trimeric Vps35-Vps29-Vps26 core; conditions: Mecozzi et al. 2014; cited from earlier work
[6] = tested on: mouse model with plaques and tangles; conditions: AD mouse model, Li et al. 2020; cited from earlier work
AQP4 = assay: Effect of bafilomycin A1 on protein levels in WT and Kidins220^f/f astrocytes (immunofluorescence and immunoblot); assay type: cell-based, mouse; conditions: for AQP4 levels: 100 nM bafilomycin A1 for 16 h
Procedure: as §2
Preparation of protein extracts, immunoprecipitation, and immunoblot analysis. Protein extracts from mice tissue, primary cell cultures or HEK293T cells were prepared in RIPA by standard methods. Briefly, cultured cells were lysed in RIPA buffer (25 mM Tris-HCl, pH 7.6, 1% Triton X-100, 0.5% sodium deoxycholate, 0.1% SDS, 150 mM NaCl) with protease and phosphatase inhibitors for 30 min at 4° C. Lysates were centrifuged for 30 min at 14,000 rpm at 4° C., and resulting supernatant was considered the total lysate soluble fraction. […] Equal amounts of total lysates or immunoprecipitates were resolved in SDS-PAGE and analysed by immunoblot. Membranes were incubated with different primary and secondary antibodies and immunoreactive bands were detected by ECL (PerkinElmer, Waltham, MA USA). […]
Quantitative and statistical analysis. Immunoblot signals were quantified by densitometric analysis with ImageJ 1.47d software (NIH) and normalized using β-actin, α-tubulin or GFAP band signal intensities. […]

primary cortical neurons [7] = conditions: DL-AP5 preincubation; Lopez-Menendez et al. 2009; cited from earlier work
[8] = Kidins220^f/f deficient astrocytes, bafilomycin A1 treatment (not shown)

AQP4 content (SNX27-retromer [1]): increased
Kidins220 levels (SNX27-retromer [1]): mild effect on elevating
VPS35 levels (SNX27-retromer [1]): mild effect on elevating
Structure (SMILES): Cl.Cl.N=C(N)SCc1ccc(CSC(=N)N)s1 [R55, thiophene-2,5-diylbis(methylene) dicarbamimidothioate dihydrochloride]
SNX27, FAM21 and VPS35 localization in endocytic vesicles (SNX27-retromer [2]; neurons pretreated 48 h with 5 μM R55, then excitotoxic NMDA): preserved
NMDA-induced degradation of FAM21 (SNX27-retromer [3]): decreasing
NMDA-induced degradation of GluN2B subunit of the NMDAR (SNX27-retromer [3]): decreasing
NMDA-induced degradation of SNX27 (SNX27-retromer [3]): decreasing
NMDA-induced degradation of SNX27-retromer cargo Kidins220 (SNX27-retromer [3]): decreasing
cleavage of the calpain substrate spectrin into breakdown products (BDPs) (SNX27-retromer [3]): diminishment
neuroprotection (MAP2 immunofluorescence and MTT-viability assays) (primary cortical neurons [4]): strong neuroprotection
retromer levels [5]: increased
retromer-mediated trafficking of cargos [5]: enhanced

Structure (SMILES): Cl.N=C(N)SCc1cccs1 [R33, thiophen-2-ylmethyl carbamimidothioate hydrochloride]
VPS35 levels [6]: elevation
amyloid-beta (Aβ) levels and deposition [6]: significant decrease
astrocytes activation [6]: less
learning and memory [6]: significant improvement
synaptic integrity [6]: improved
tau phosphorylation [6]: reduced
retromer levels [5]: increased
retromer-mediated trafficking of cargos [5]: enhanced

Structure (SMILES): CO/C1=C\C(C)=C\[C@@H](C)[C@@H](O)[C@@H](C)C/C(C)=C/C=C/[C@H](OC)[C@@H]([C@@H](C)[C@@H](O)[C@H](C)[C@@]2(O)C[C@@H](O)[C@H](C)[C@@H](C(C)C)O2)OC1=O [bafilomycin A1]
AQP4 levels (AQP4; Kidins220^f/f astrocytes): significant increase
loss of SNX27 (AQP4; [8]): not rescued
loss of VPS35 (AQP4; [8]): not rescued
AQP4 levels (AQP4; WT astrocytes): significant increase

Structure (SMILES): NC(CCCP(=O)(O)O)C(=O)O (racemic) [DL-AP5]
SNX27-retromer intracellular organization and colocalization of SNX27 and VPS35 (Pearson's correlation coefficient) (SNX27-retromer [2]; neurons pretreated 1 h with 200 μM DL-AP5, then 50 μM NMDA and 10 μM glycine): preserved
NMDA-induced degradation of FAM21 (SNX27-retromer [3]): blocked
NMDA-induced degradation of GluN2B subunit of the NMDAR (SNX27-retromer [3]): decreasing
NMDA-induced degradation of SNX27 (SNX27-retromer [3]): blocked
NMDA-induced degradation of SNX27-retromer cargo Kidins220 (SNX27-retromer [3]): decreasing
cleavage of the calpain substrate spectrin into breakdown products (BDPs) (SNX27-retromer [3]): reduced
neuronal survival (primary cortical neurons [7]): preserves

Reference: US20240226062A1, “METHODS AND COMPOSITIONS FOR THE TREATMENT OF DISORDERS CHARACTERIZED BY A KIDINS220 DYSFUNCTION IN A SUBJECT” (priority 2021, published 2024)
